Literature values as cited in US12364698B2 (Janssen Pharmaceutica NV, priority 2015, dated 2025).

Conditions: at a pH of about 7

Structure (SMILES): C=CC(=O)N1CCC[C@@H](n2nc(-c3ccc(Oc4ccccc4)cc3)c3c(N)ncnc32)C1 [Ibrutinib, 1-[(3R)-3-[4-amino-3-(4-phenoxyphenyl)-1H-pyrazolo[3,4 d]pyrimidin-1-yl]-1-piperidinyl]-2-propen-1-one]
- partition coefficient: about 4
